US12637440B2, “Amide derivative useful as diacylglycerol acyltransferase 2 inhibitor, and use thereof” (LG CHEM, LTD., priority 2019, dated 2026)

Target: T1, Recombinant human DGAT2 protein (Homo sapiens, UniProt Q96PD7)
T1 construct: FLAG (DYKDDDDK); (N); made in house; host or cells: Sf-21 insect cells (BacPAK baculovirus system); used as a membrane preparation
T1 sequence (Q96PD7 1-388): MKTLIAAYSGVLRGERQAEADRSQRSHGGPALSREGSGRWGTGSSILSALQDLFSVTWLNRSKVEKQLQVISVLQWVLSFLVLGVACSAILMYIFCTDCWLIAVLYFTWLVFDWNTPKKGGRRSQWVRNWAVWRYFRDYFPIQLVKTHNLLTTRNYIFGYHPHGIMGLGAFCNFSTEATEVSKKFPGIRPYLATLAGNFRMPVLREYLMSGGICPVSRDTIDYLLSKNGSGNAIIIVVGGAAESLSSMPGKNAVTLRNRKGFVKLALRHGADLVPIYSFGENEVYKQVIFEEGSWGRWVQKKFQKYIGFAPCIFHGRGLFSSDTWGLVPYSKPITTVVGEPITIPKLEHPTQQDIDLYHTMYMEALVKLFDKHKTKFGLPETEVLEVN
Assay: Measurement of inhibitory effect against DGAT2 enzyme activity (SPA, Phospholipid FlashPlate, [14C]-TG production)
Assay type: biochemical
Conditions: concentration inhibiting [14C]-labeled triacyl glycerol (TG) production by 50%; 2 μg DGAT2-membrane protein from Sf-21 cells, 37° C.
Method: Experimental Example: Measurement of Inhibitory Effect Against DGAT2 Enzyme Activity
In order to prepare the pBacPAK9-DGAT2, which is DGAT2 expression vector, the human DGAT2 gene amplified by polymerase chain reaction (PCR) was cloned into the EcoR1 and Xho1 sites of the pBacPAK9 (clonctech) vector. The nucleotide sequence of the primers used in PCR was the forward primer 5′ […] and the reverse primer 5′ […]. The composition of the reaction solution was to contain 50 ng of cDNA clone (OriGene), 200 μM of dATP, dCTP, dTTP, dGTP, 200 nM of each primer, 1 unit of Tag DNA Polymerase (Toyobo), 1×PCR buffer, and the final volume was adjusted to 20 μl. The reaction conditions were denatured at 95° C. for 5 minutes, followed by 30 times of 94° C. for 20 seconds, 60° C. for 20 seconds, and 72° C. for 90 seconds, followed by further reaction at 72° C. for 7 minutes.
Recombinant human DGAT2 protein was expressed in Sf-21 cells, which are insect cells, by using the BacPack baculovirus expression system (Clontech). The brief manufacturing process is as follows. First, the pBacPAK9-DGAT2 expression vector was transfected with BacPAK6 virus DNA (Bsu36I digest) into sf21 cells using Bacfectin to prepare a recombinant DGAT2 expressing baculovirus. The thus prepared baculovirus was infected with Sf-21 cells at 10 MOI (multiplicity of infection), and after 72 hours, infected insect cells were collected and membrane proteins were isolated. For membrane protein separation, the cell pellet was dissolved in a sucrose solution containing 250 mM sucrose, 10 mM Tris (pH 7.4), and 1 mM ethylenediamine-tetraacetic acid (EDTA), and then homogenized by using a dounce homogenizer, and the supernatant was taken by centrifuging at 600×g for 15 minutes, and centrifuged at 100,000×g for 1 hour to discard the supernatant, and the remaining pellet was resuspended in 20 mM HEPES buffer (pH 7.4). The prepared DGAT2 overexpressing membrane protein was dispensed in 100 μl and stored at −80° C. until use. Protein concentration was quantified by using the BCA Protein Assay Kit (Thermo Scientific).
In vitro DGAT2 analysis was performed using a Phospholipid Flash Plate (PerkinElmer) based on the principle of SPA (Scintillation Proximity Assay). First, DGAT2 inhibition compounds serially diluted 5 times from 3 nM to 10 μM (final concentration, 1% DMSO) were mixed in a buffer solution containing 2 μg DGAT2-membrane protein and 20 mM HEPES, 20 mM MgCl2, 1 mg/mL BSA, 50 μM 1,2 sn-oleoyl glycerol (Sigma), put in a 96-well flash plate (FlashPlate) and reacted at 37° C. for 20 minutes, and then 1 μM [14C] ole oil CoA (PerkinElmer, NEC651050UC) was added to be a final volume of 100 μL and further reacted at 37° C. for 15 minutes. After the enzymatic reaction was completed, 100 μL of isopropanol was added, the plate was sealed with a film, and the plate was shaken slowly in a plate shaker. The next day, the amplified scintillation signal (cpm) in Topcounter (Packard) was measured to measure the degree of production of [14C]-labeled triacyl glycerol (TG) as a reaction product. The measured value when the compound was not treated was used as a positive control, and the measured value of the compound treated group was calculated as a relative % to measure the inhibition effect of the compound on TG production.

Compared with `CCOc1ccccc1O[C@@H]1CCCN(c2cncc(NC(=O)Cc3cccc(Cl)c3)n2)C1` [Example 30, (R)-2-(3-chlorophenyl)-N-(6-(3-(2-ethoxyphenoxy)piperidin-1-yl)pyrazin-2-yl)acetamide], `CCOc1ccccc1O[C@@H]1CCCN(c2cncc(NC(=O)Cc3cccc(C(=O)O)c3)n2)C1` [Example 33, (R)-3-(2-((6-(3-(2-ethoxyphenoxy)piperidin-1-yl)pyrazin-2-yl)amino)-2-oxoethyl)benzoic acid] is 160-fold higher in IC50: 29 nM for the first, 4500 nM for the second.

First: CCOc1ccccc1O[C@@H]1CCCN(c2cncc(NC(=O)C(C)(C)c3ccccc3)n2)C1 [Example 31, (R)—N-(6-(3-(2-ethoxyphenoxy)piperidin-1-yl)pyrazin-2-yl)-2-methyl-2-phenylpropanamide]
Second: CCOc1ccccc1O[C@@H]1CCCN(c2cncc(NC(=O)C(C)(C)c3ccc(C(C)(C)C(=O)O)cc3)n2)C1 [Example 39, (R)-2-(4-(1-((6-(3-(2-ethoxyphenoxy)piperidin-1-yl)pyrazin-2-yl)amino)-2-methyl-1-oxopropan-2-yl)phenyl)-2-methylpropanoic acid]
The IC50 of the first is 4.3-fold lower: 180 nM for the first, 770 nM for the second. The first is the more potent here.

Compared with `CCOc1ccccc1O[C@@H]1CCCN(c2cncc(NC(=O)Cc3ccc(CC(=O)O)cc3)n2)C1` [Example 34, (R)-2-(4-(2-((6-(3-(2-ethoxyphenoxy)piperidin-1-yl)pyrazin-2-yl)amino)-2-oxoethyl)phenyl)acetic acid], `CCOc1ccccc1O[C@@H]1CCCN(c2cncc(NC(=O)Cc3ccc(CC(N)=O)cc3)n2)C1` [Example 35] is 37-fold lower in IC50: 1100 nM for the first, 30 nM for the second. The second is the more potent here.

Going from `CCOc1ccccc1O[C@@H]1CCCN(c2cncc(NC(=O)Cc3ccc(O)cc3)n2)C1` [Example 36, (R)—N-(6-(3-(2-ethoxyphenoxy)piperidin-1-yl)pyrazin-2-yl)-2-(4-hydroxyphenyl)acetamide] to `CCOc1ccccc1O[C@@H]1CCCN(c2cncc(NC(=O)CCc3ccc(CC(=O)O)cc3)n2)C1` [Example 49, (R)-2-(4-(3-((6-(3-(2-ethoxyphenoxy)piperidin-1-yl)pyrazin-2-yl)amino)-3-oxopropyl)phenyl)acetic acid], the IC50 rises from 12 nM to 100 nM (8.3-fold).

Compared with `CCOc1ccccc1O[C@@H]1CCCN(c2cncc(NC(=O)Cc3ccc(OCCCC(=O)O)cc3)n2)C1` [Example 37, (R)-4-(4-(2-((6-(3-(2-ethoxyphenoxy)piperidin-1-yl)pyrazin-2-yl)amino)-2-oxoethyl)phenoxy)butanoic acid], `CCOc1ccccc1O[C@@H]1CCCN(c2cncc(NC(=O)Cc3ccc(OC(C)(C)C(=O)O)cc3)n2)C1` [Example 38] is 2.3-fold lower in IC50: 460 nM for the first, 200 nM for the second.

Compared with `CCOc1ccccc1O[C@@H]1CCCN(c2cncc(NC(=O)/C=C/c3ccc(C(=O)O)cc3)n2)C1` [Example 41, (R,E)-4-(3-((6-(3-(2-ethoxyphenoxy)piperidin-1-yl)pyrazin-2-yl)amino)-3-oxoprop-1-en-1-yl)benzoic acid], `CCOc1ccccc1O[C@@H]1CCCN(c2cncc(NC(=O)/C(C)=C/c3ccc(C(=O)O)cc3)n2)C1` [Example 42, (R,E)-4-(3-((6-(3-(2-ethoxyphenoxy)piperidin-1-yl)pyrazin-2-yl)amino)-2-methyl-3-oxoprop-1-en-1-yl)benzoic acid] is 2.4-fold lower in IC50: 3100 nM for the first, 1300 nM for the second.

Compared with `CCOc1ccccc1O[C@@H]1CCCN(c2cncc(NC(=O)C(C)Cc3ccc(C(=O)O)cc3)n2)C1` (stereo partly drawn) [Example 43, 4-(3-((6-((R)-3-(2-ethoxyphenoxy)piperidin-1-yl)pyrazin-2-yl)amino)-2-methyl-3-oxopropyl)benzoic acid], `CCOc1ccccc1O[C@@H]1CCCN(c2cncc(NC(=O)CCc3ccc(C(C)(C)C(=O)O)cc3)n2)C1` [Example 51, (R)-2-(4-(3-((6-(3-(2-ethoxyphenoxy)piperidin-1-yl)pyrazin-2-yl)amino)-3-oxopropyl)phenyl)-2-methylpropanoic acid] is 10-fold lower in IC50: 330 nM for the first, 33 nM for the second. The second is the more potent here.

`CCOc1ccccc1O[C@@H]1CCCN(c2cncc(NC(=O)CCc3ccc(C(=O)O)c(F)c3)n2)C1` [Example 44, (R)-4-(3-((6-(3-(2-ethoxyphenoxy)piperidin-1-yl)pyrazin-2-yl)amino)-3-oxopropyl)-2-fluorobenzoic acid] and `CCOc1ccccc1O[C@@H]1CCCN(c2cncc(NC(=O)CCc3ccc(C(=O)O)c(C)c3)n2)C1` [Example 45, (R)-4-(3-((6-(3-(2-ethoxyphenoxy)piperidin-1-yl)pyrazin-2-yl)amino)-3-oxopropyl)-2-methylbenzoic acid] are within 1.5-fold of each other in IC50: 170 nM for the first, 150 nM for the second.

Going from `CCOc1ccccc1O[C@@H]1CCCN(c2cncc(NC(=O)CCc3ccc(C(=O)O)c(OC)c3)n2)C1` [Example 46, (R)-4-(3-((6-(3-(2-ethoxyphenoxy)piperidin-1-yl)pyrazin-2-yl)amino)-3-oxopropyl)-2-methoxybenzoic acid] to `CCOc1ccccc1O[C@@H]1CCCN(c2cncc(NC(=O)CCc3ccc(C(=O)O)c(Cl)c3)n2)C1` [Example 47, (R)-2-chloro-4-(3-((6-(3-(2-ethoxyphenoxy)piperidin-1-yl)pyrazin-2-yl)amino)-3-oxopropyl)benzoic acid], the IC50 falls from 510 nM to 310 nM (1.6-fold).

Compared with `CCOc1ccccc1O[C@@H]1CCCN(c2cncc(NC(=O)CCc3cccc(C(=O)O)c3)n2)C1` [Example 48, (R)-3-(3-((6-(3-(2-ethoxyphenoxy)piperidin-1-yl)pyrazin-2-yl)amino)-3-oxopropyl)benzoic acid], `CCOc1ccccc1O[C@@H]1CCCN(c2cncc(NC(=O)CCc3ccc(CC(N)=O)cc3)n2)C1` [Example 50] is 74-fold lower in IC50: 710 nM for the first, 9.6 nM for the second. The second is the more potent here.

First: CCOc1ccccc1O[C@@H]1CCCN(c2cncc(NC(=O)CCc3ccc(C4(C(=O)O)CC4)cc3)n2)C1 [Example 52, (R)-1-(4-(3-((6-(3-(2-ethoxyphenoxy)piperidin-1-yl)pyrazin-2-yl)amino)-3-oxopropyl)phenyl)cyclopropane-1-carboxylic acid]
Second: CCOc1ccccc1O[C@@H]1CCCN(c2cncc(NC(=O)CCc3ccc(N4CCC(C(=O)O)CC4)cc3)n2)C1 [Example 56, (R)-1-(4-(3-((6-(3-(2-ethoxyphenoxy)piperidin-1-yl)pyrazin-2-yl)amino)-3-oxopropyl)phenyl)piperidine-4-carboxylic acid]
The IC50 of the first is 12-fold lower: 66 nM for the first, 820 nM for the second. The first is the more potent here.

Compared with `CCOc1ccccc1O[C@@H]1CCCN(c2cncc(NC(=O)CCc3cc(F)c(C(=O)O)c(F)c3)n2)C1` [Example 53, (R)-4-(3-((6-(3-(2-ethoxyphenoxy)piperidin-1-yl)pyrazin-2-yl)amino)-3-oxopropyl)-2,6-difluorobenzoic acid], `CCOc1ccccc1O[C@@H]1CCCN(c2cncc(NC(=O)CCc3cc(Cl)c(C(=O)O)c(Cl)c3)n2)C1` [Example 54, (R)-2,6-dichloro-4-(3-((6-(3-(2-ethoxyphenoxy)piperidin-1-yl)pyrazin-2-yl)amino)-3-oxopropyl)benzoic acid] is 4.4-fold lower in IC50: 390 nM for the first, 88 nM for the second. The second is the more potent here.

Compared with `CCOc1ccccc1O[C@@H]1CCCN(c2cncc(NC(=O)CCc3cc(C)c(C(=O)O)c(C)c3)n2)C1` [Example 55, (R)-4-(3-((6-(3-(2-ethoxyphenoxy)piperidin-1-yl)pyrazin-2-yl)amino)-3-oxopropyl)-2,6-dimethylbenzoic acid], `CCOc1ccccc1O[C@@H]1CCCN(c2cncc(NC(=O)c3cc(F)c(N4CCC(C(=O)O)CC4)c(F)c3)n2)C1` [Example 57] is 19-fold higher in IC50: 280 nM for the first, 5300 nM for the second. The first is the more potent here.
